According to US20240150293A1, “SPIROCYCLOHEXANE DERIVATIVES, PHARMACEUTICAL COMPOSITIONS CONTAINING THEM AND THEIR USES AS ANTI-APOPTOTIC INHIBITORS” (LES LABORATOIRES SERVIER, priority 2021, published 2024):

Molecular target: Cy5-labelled Mcl1 (amino acids 171-321) C286S protein (UniProtKB Q07820) (Homo sapiens (Human), UniProt Q07820, C286S)
Assay: Inhibition of Mcl-1 by the fluorescence quenching assay (Example A, Method B)
Type: binding
Conditions: not given
Description: Fluorescence quenching assay measures the change fluorescence intensity of C-terminally Cy5-labelled Mcl1 (amino acids 171-321) C286S protein (UniProtKB® primary accession number Q07820) having an amino acid sequence:
which is linked at the C-terminus to the amino acid X which corresponds to a cysteine labelled on the sulfur with sulpho-Cyanine5 from Lumiprobe GmbH catalogue number 13380, upon binding of a C-terminally labelled peptide derived from PUMA (UniProtKB® primary accession number Q9BXH1) having an amino acid sequence:
which is linked at the C-terminus to the amino acid X′, where X′ is cysteine labelled on the sulfur with TQ5WS from AAT Bioquest catalogue number 2079.
The addition of a compound which binds competitively to the same site as the peptide will result in an increase in the fluorescence intensity of the protein due to displacement of the fluorescence quencher.
An 11-point serial dilution of each compound was prepared in DMSO, the final buffer conditions were 10 mM 4-(2-hydroxyethyl)-1-piperazineethanesulfonic acid [HEPES], 150 mM NaCl, 0.05% Tween 20, pH 7.4 and 5% DMSO. The final protein concentration in the assay was 1 nM with the peptide present at 10, 20 or 400 nM. The experiments were incubated for 2 hours at room temperature before fluorescence intensity was measured on a Biotek SynergyNeo plate reader (Excitation 620 nm, emission 680 nm). The dose response curves were plotted with XL-Fit software using a 4-Parameter Logistic Model (Sigmoidal DoseResponse Model) and the inhibitory concentrations that gave a 50% increase in fluorescence intensity was determined (IC50). The Ki values were determined from the IC50 values according to Cer et al, Nucleic Acids Res, 2009, 37 (WebServer issue): W441-W445. Inhibition constants (Ki) are determined from complete binding inhibition curves (cKi) or from estimated from incomplete binding inhibition curves (eKi) in most cases due to low activity.

Sequence of Cy5-labelled Mcl1 (amino acids 171-321) C286S protein (Q07820 171-321 C286S): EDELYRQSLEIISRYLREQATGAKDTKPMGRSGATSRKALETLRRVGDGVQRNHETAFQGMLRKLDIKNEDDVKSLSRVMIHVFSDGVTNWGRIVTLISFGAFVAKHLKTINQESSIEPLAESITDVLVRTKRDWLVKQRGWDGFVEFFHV

| Structure (SMILES) | Ki [nM] |
| --- | --- |
| O=C(O)[C@]1(Nc2cccc(Cl)c2)CC[C@@]2(CC1)c1ccccc1CC2CC(F)COc1ccnc2c1CCC2 (mixture of isomers) [Example 504, (1r,4r)-4-(3-chloroanilino)-2′-{3-[(6,7-dihydro-5H-cyclopenta[b]pyridin-4-yl)oxy]-2-fluoropropyl}-2′,3′-dihydrospiro[cyclohexane-1,1′-indene]-4-carboxylic acid] | 29.9 |
| CC[C@@H](COc1ccnc2ccsc12)C[C@H]1Cc2ccccc2[C@]12CC[C@@](Nc1cccc(Cl)c1)(C(=O)O)CC2 [Example 538, (1r,2′S,4S)-4-(3-chloroanilino)-2′-[(2R)-2-{[(thieno[3,2-b]pyridin-7-yl)oxy]methyl}butyl]-2′,3′-dihydrospiro[cyclohexane-1,1′-indene]-4-carboxylic acid] | 9.15 |
| Cc1cc(C(C)O)cc2c1CC(C[C@@H](C)COc1ccnc3c1[C@H](C)CCC3)[C@]21CC[C@](Nc2cccc(Cl)c2)(C(=O)O)CC1 (stereo partly drawn) [Example 761, (1r,4R)-4-(3-chloroanilino)-6′-(1-hydroxyethyl)-4′-methyl-2′-[(2R)-2-methyl-3-{[(5R)-5-methyl-5,6,7,8-tetrahydroquinolin-4-yl]oxy}propyl]-2′,3′-dihydrospiro[cyclohexane-1,1′-indene]-4-carboxylic acid] | 65.3 |
| Cc1cc(OCCC[C@@H]2Cc3ccccc3[C@]23CC[C@@](Nc2cccc(Cl)c2)(C(=O)O)CC3)c2cc[nH]c2c1 [Example 487, (1r,2′R,4R)-4-(3-chloroanilino)-2′-{3-[(6-methyl-1H-indol-4-yl)oxy]propyl}-2′,3′-dihydrospiro[cyclohexane-1,1′-indene]-4-carboxylic acid] | 72.9 |
| O=C(O)[C@]1(Nc2cccc(Cl)c2)CC[C@@]2(CC1)c1ccccc1CC2CC(CO)COc1ccnc2c1CCC2 (single isomer, unassigned) [Example 500, (1r,4r)-4-(3-chloroanilino)-2′-(2-{[(6,7-dihydro-5H-cyclopenta[b]pyridin-4-yl)oxy]methyl}-3-hydroxypropyl)-2′,3′-dihydrospiro[cyclohexane-1,1′-indene]-4-carboxylic acid] | 15.5 |
| C[C@@H](COc1ccnc2c1CCCCC2)CC1=Cc2ccccc2[C@]12CC[C@@](Nc1cccc(Cl)c1)(C(=O)O)CC2 [Example 632, (1r,4R)-4-(3-chloroanilino)-2′-{(2R)-2-methyl-3-[(6,7,8,9-tetrahydro-5H-cyclohepta[b]pyridin-4-yl)oxy]propyl}spiro[cyclohexane-1,1′-indene]-4-carboxylic acid] | 6.01 |
| O=C(O)[C@]1(Nc2cccc(Cl)c2)CC[C@@]2(CC1)c1ccccc1CC2CC(F)(F)COc1ccnc2c1CCC2 (stereo partly drawn) [Example 503, (1r,4r)-4-(3-chloroanilino)-2′-{3-[(6,7-dihydro-5H-cyclopenta[b]pyridin-4-yl)oxy]-2,2-difluoropropyl}-2′,3′-dihydrospiro[cyclohexane-1,1′-indene]-4-carboxylic acid] | 63.8 |
| CC(CC1Cc2ccccc2[C@]12CC[C@@](Nc1cccc(Cl)c1)(C(=O)O)CC2)C(C)Oc1ccnc2c1CCC2 (single isomer, unassigned) [Example 614, (1r,4r)-4-(3-chloroanilino)-2′-{3-[(6,7-dihydro-5H-cyclopenta[b]pyridin-4-yl)oxy]-2-methylbutyl}-2′,3′-dihydrospiro[cyclohexane-1,1′-indene]-4-carboxylic acid] | 123 |
| C[C@@H](COc1ccnc2c1CCC2(C)O)C[C@H]1Cc2ccccc2[C@]12CC[C@@](Nc1cccc(Cl)c1)(C(=O)O)CC2 (stereo partly drawn) [Example 618, (1r,2′S,4S)-4-(3-chloroanilino)-2′-{(2R)-3-[(7-hydroxy-7-methyl-6,7-dihydro-5H-cyclopenta[b]pyridin-4-yl)oxy]-2-methylpropyl}-2′,3′-dihydrospiro[cyclohexane-1,1′-indene]-4-carboxylic acid] | 42.6 |
| O=C(O)[C@]1(Nc2cccc(Cl)c2)CC[C@@]2(CC1)c1ccccc1C[C@H]2CCCOc1cccc2[nH]ccc12 [Example 485, (1r,2′R,4R)-4-(3-chloroanilino)-2′-{3-[(1H-indol-4-yl)oxy]propyl}-2′,3′-dihydrospiro[cyclohexane-1,1′-indene]-4-carboxylic acid] | 45.5 |
| C[C@H](C[C@H]1Cc2ccccc2[C@]12CC[C@@](Nc1cccc(Cl)c1)(C(=O)O)CC2)[C@@H](C)Oc1ccnc2c1CCC2 [Example 616, (1r,2′S,4S)-4-(3-chloroanilino)-2′-{(2R,3R)-3-[(6,7-dihydro-5H-cyclopenta[b]pyridin-4-yl)oxy]-2-methylbutyl}-2′,3′-dihydrospiro[cyclohexane-1,1′-indene]-4-carboxylic acid] | 12.1 |
| Cc1cnc2c(c1OC[C@H](C)C[C@H]1Cc3ccccc3[C@]13CC[C@@](Nc1cccc(Cl)c1)(C(=O)O)CC3)CCCC2 [Example 649, (1r,2′S,4S)-4-(3-chloroanilino)-2′-{(2R)-2-methyl-3-[(3-methyl-5,6,7,8-tetrahydroquinolin-4-yl)oxy]propyl}-2′,3′-dihydrospiro[cyclohexane-1,1′-indene]-4-carboxylic acid] | 6.36 |
| CC(C)COc1cc2c(cc1Cl)C[C@H](C[C@@H](C)COc1ccnc3c1[C@H](C)CCC3)[C@]21CC[C@](Nc2cccc(Cl)c2)(C(=O)O)CC1 [Example 820, (1r,2′S,4S)-5′-chloro-4-(3-chloroanilino)-2′-[(2R)-2-methyl-3-{[(5R)-5-methyl-5,6,7,8-tetrahydroquinolin-4-yl]oxy}propyl]-6′-(2-methylpropoxy)-2′,3′-dihydrospiro[cyclohexane-1,1′-indene]-4-carboxylic acid] | 0.469 |
| C[C@@H](CNc1ccncc1)C[C@@H]1Cc2ccccc2[C@]12CC[C@@](Nc1cccc(Cl)c1)(C(=O)O)CC2 [Example 574, (1r,2′R,4R)-4-(3-chloroanilino)-2′-{(2R)-2-methyl-3-[(pyridin-4-yl)amino]propyl}-2′,3′-dihydrospiro[cyclohexane-1,1′-indene]-4-carboxylic acid] | 221 |
| O=C(O)[C@]1(Nc2cccc(Cl)c2)CC[C@@]2(CC1)c1ccccc1C[C@@H]2CCCOc1cccc2[nH]ccc12 [Example 486, (1r,2′S,4S)-4-(3-chloroanilino)-2′-{3-[(1H-indol-4-yl)oxy]propyl}-2′,3′-dihydrospiro[cyclohexane-1,1′-indene]-4-carboxylic acid] | 82 |
| C[C@@H](COc1ccnc2c1[C@H](C)CCC2)C[C@H]1Cc2cc3c(cc2[C@]12CC[C@@](Nc1cccc(Cl)c1)(C(=O)Oc1ccc4c(c1)CCC4)CC2)OCO3 [Example 937, 2,3-dihydro-1H-inden-5-yl (1r,4S,6′S)-4-(3-chloroanilino)-6′-[(2R)-2-methyl-3-{[(5R)-5-methyl-5,6,7,8-tetrahydroquinolin-4-yl]oxy}propyl]-6′,7′-dihydro-2′H-spiro[cyclohexane-1,5′-indeno[5,6-d][1,3]dioxole]-4-carboxylate] | 28 |
| CC[C@@H](COc1ccnc2ccsc12)C[C@@H]1Cc2ccccc2[C@]12CC[C@@](Nc1cccc(Cl)c1)(C(=O)O)CC2 [Example 539, (1r,2′R,4R)-4-(3-chloroanilino)-2′-[(2R)-2-{[(thieno[3,2-b]pyridin-7-yl)oxy]methyl}butyl]-2′,3′-dihydrospiro[cyclohexane-1,1′-indene]-4-carboxylic acid] | 25.4 |

Same assay, conditions: @ 10 μM, read-out: Mcl-1 inhibition, % at a single concentration

| Structure (SMILES) | inhibition at 10 µM [%] |
| --- | --- |
| CC(C)OC(=O)[C@]1(Nc2cccc(Cl)c2)CC[C@@]2(CC1)c1cc3c(cc1C[C@@H]2C[C@@H](C)COc1ccnc2c1[C@H](C)CCC2)OCO3 [Example 931, propan-2-yl (1r,4S,6′S)-4-(3-chloroanilino)-6′-[(2R)-2-methyl-3-{[(5R)-5-methyl-5,6,7,8-tetrahydroquinolin-4-yl]oxy}propyl]-6′,7′-dihydro-2′H-spiro[cyclohexane-1,5′-indeno[5,6-d][1,3]dioxole]-4-carboxylate] | 9.5 |

Same assay, conditions: Ki determined from IC50

| Structure (SMILES) | Ki [nM] |
| --- | --- |
| O=C(O)[C@]1(Nc2cccc(Cl)c2)CC[C@]2(CC1)C(CCc1ccccn1)=Cc1ccccc12 [Example 199, (1r,4r)-4-(3-chloroanilino)-2′-[2-(pyridin-2-yl)ethyl]spiro[cyclohexane-1,1′-indene]-4-carboxylic acid] | 1250 |
| C[C@@H](COc1cccc2[nH]ccc12)CN1Cc2ccccc2[C@]12CC[C@@](Nc1cccc(Cl)c1)(C(=O)O)CC2 [Example 39, (1s,4S)-4-(3-chloroanilino)-2′-{(2R)-3-[(1H-indol-4-yl)oxy]-2-methylpropyl}-2′,3′-dihydrospiro[cyclohexane-1,1′-isoindole]-4-carboxylic acid] | 44.9 |
| O=C(O)[C@]1(Nc2cccc(Cl)c2)CC[C@]2(CC1)C(CCc1ccccc1)=Cc1ccccc12 [Example 200, (1r,4r)-4-(3-chloroanilino)-2′-(2-phenylethyl)spiro[cyclohexane-1,1′-indene]-4-carboxylic acid] | 139 |
